These results are taken from patent EP0410366A2, “Anthracycline derivatives” (BEHRINGWERKE Aktiengesellschaft, priority 1989, dated 1991).

The subject of one data set is L 1210 Leukämie. The class given is in vivo. Particulars: for opt. Dosis: dose with the largest antitumoral effect. As for the experimental part:
Methodik: Ascitesflüssigkeit wird unter sterilen Bedingungen DBA2 Mäusen (weiblich, 18-20 g) 7 Tage nach Implantation entnommen. Der Ascites wird dreimal mit PBS gewaschen, gezählt und auf eine Zellzahl von 10⁴ in 0.2 ml PBS eingestellt.
10⁴ Zellen, suspendiert in 0.2 ml PBS, werden anschließend DBF1 Mäusen (weiblich, 18-20 g) intravenös injiziert. 6 Tiere pro Gruppe werden für jede Substanzkonzentration bzw. als Kontrolle eingesetzt.
• a) Die Tiere werden am Tag 1 und 5 nach Injektion der Testsubstanz gewogen. Gewichtsverlust von mehr als 20 % am Tag 5 wird als Indikator einer toxischen Substanzwirkung angesehen. • b) Am Ende des Experimentes (Tod aller Tiere oder überlebende Tiere am Tag 60) wird die mittlere Überlebenszeit der Tiere in den jeweiligen Gruppen bestimmt, sofern am Tag 5 des Experimentes mindestens 65 % der Tiere noch gelebt hatten. Die mittlere Überlebenszeit wird ausschließlich für im Verlaufe des Experimentes sterbende Tiere bestimmt. Langzeit-überlebende (LTS) werden bei dieser Berechnung nicht berücksichtigt und gesondert aufgeführt.
Aus der mittleren Überlebenszeit (MSTt) der behandelten Gruppen sowie der Kontrollgruppen (MSTc) wird die antitumorale Wirksamkeit (T/C) für die jeweilige Substanzkonzentration in Prozent der unbehandelten Kontrolle entsprechend der folgenden Formel bestimmt: [formula]
T/C Werte größer als 125 % werden als Indikator einer signifikanten antitumoralen Wirksamkeit der Testsubstanz angesehen. Die Dosis, die den größten antitumoralen Effekt (optimale Dosierung) zeigte, wurde ermittelt. Tiere, die am Tag 60 des Experimentes noch leben, werden als Longterm-Survivors getrennt aufgeführt. Tabelle 2

In a further data set the test system is L 1210 Leukämiezellen. Description: Cytotoxicity against L 1210 leukemia cells (stem cell assay, SCA; colony formation in soft agar). It counts as cell-based, Maus. Particulars: Mus musculus. On the procedure:
Der Test wurde entsprechend der von Hamburger und Salmon beschriebenen Methodik mit den unten beschriebenen Modifikationen durchgeführt.
Konditioniertes Medium wurde durch McCoy 5A Medium ersetzt. Als Folge der hohen Klonierungsrate der L 1210 Leukämiezellen in Soft Agar wurde die Anzahl an Tumorzellen pro Platte auf 5 x 10² reduziert.
Die Zellen wurden mit unterschiedlichen Konzentrationen der Testsubstanz für 1 h bei 37° C inkubiert. Anschließend wurden die Zellen zweimal mit McCoy 5A Medium gewaschen und anschließend in einem Zwei-Schichten-Agar System als obere Schicht entsprechend der Methode von Hamburger und Salmon ausplatiert.
Zusätzliche Parallelexperimente wurden unter Verwendung einer kontinuierlichen Inkubationszeit durchgeführt, wobei unterschiedliche Konzentrationen der Testsubstanz der oberen Agarschicht vor Ausplatieren der Zellen zugemischt wurden.
Die Platten wurden in einem Brutschrank mit 5 % CO₂, 20 % 02 und 95 % relativer Luftfeuchte für 5-7 Tage inkubiert. Nach dieser Zeit wurden Kolonien mit einem Durchmesser von 60 µm mit Hilfe eines Invertoskopes gezählt.
Die Ergebnisse wurden angegeben als prozentualer Anteil der Kolonien in behandelten versus unbehandelten Gruppen. Der Variationskoeffizient bei wiederholten Experimenten war kleiner als 15 %.
Aus der Dosis-Wirkungskurve wurde die IC₅₀ für die kontinuierliche und einstündige Inkubation bestimmt (Tab. 1).

Another data set concerns L 1210. As to the kind of experiment: Proliferation test (MTT reduction), L 1210. Particulars: Mus musculus, read-out: IC₅₀ MTT L1210. The class given is cell-based, Maus. As for the experimental part:
(§1) L 1210, A 549 oder HT 29 in exponentieller Wachstumsphase werden in einer Zelldichte von 5 x 10³ Zellen/ml in RPMI 1640 in einer 96 Well Mikrotiterplatte für 72 h mit unterschiedlichen Konzentrationen der Testsubstanz bei 37° C, 5 % CO₂ und 95 % relativer Luftfeuchte inkubiert. Kontrollexperimente erhalten anstelle der Testsubstanz lediglich Wachstumsmedium. Für jede Testsubstanz sowie für die Kontrolle werden 4fach Bestimmungen angesetzt. Nach 65 h Inkubation werden 50 µl einer MTT-Lösung (2.5 mg/ml in Phosphat-gepuffertem Kochsalz) zugegeben. In Gegenwart lebender Zellen wird MTT zu einem dunkelroten unlöslichen Formazanfarbstoff reduziert. Diese Reaktion ist nach 7 h (L 1210 Zellen) bzw. nach 24 h (A 549, HT 29 Zellen) beendet, und das überstehende Medium wird sorgfältig abgesaugt. Der unlösliche Farbstoff wird durch Zugabe von 100 µl DMSO aufgelöst und die Extinktion der so entstehenden Lösung anschließend für jedes Well in einem Multiscan Photometer 340 CC der Fa. Flow bei einer Wellenlänge von 492 nm vermessen.
(§2) Aus dem Verhältnis der Extinktionen behandelter und unbehandelter Zellen ergibt sich eine Dosis-Wirkungskurve, aus der die Konzentration, die gerade 50 % der Zellen (IC₅₀) abtötet, abgelesen werden kann. Für wiederholte Untersuchungen beträgt der Variationskoeffizient weniger als 15 % (Tabelle 1). Tabelle 1

The next data set deals with HT 29. As to the kind of experiment: Proliferation test (MTT reduction), HT 29. It counts as cell-based. The following applies: Homo sapiens, read-out: IC₅₀ MTT HT 29. On the procedure:
as §1, §2

For another data set, the system named is A 549. Description: Proliferation test (MTT reduction), A 549. The following applies: Homo sapiens, read-out: IC₅₀ MTT A 549. It counts as cell-based. On the procedure: as §1, §2
Background: Formazan colour is commonly taken as a measure of viable cells.

The mark [1] stands for this setting: L 1210 iv, treatment iv, Q3D (Verbind. 1: 2x, Pirarubicin: 3x).
The mark [2] stands for this setting: L1210, read-out: IC₅₀ SCA L 1210 1 h.

Each structure is given as a SMILES string. Values after ≈ are worked out from the molar mass of the structure shown. Where two headings read alike, the source gives them in different places.

With `COc1cccc2c1C(=O)c1c(O)c3c(c(O)c1C2=O)C[C@@](O)(C(=O)CO)C[C@@H]3O[C@H]1C[C@H](N)[C@H](O[C@@H]2CCCCO2)[C@H](C)O1` [Pirarubicin, 4′-O-THP-Doxorubicin, reference compound], the “opt. Dosis” value with L 1210 Leukämie (setting [1]) was 4.7 mg/kg/inj. Also, the “Effektivität T/C %” value with L 1210 Leukämie (iv) stood at 178%. Further, the IC50 amounted to 0.01 µg/mL (≈ 0.0159 µM) in the data set on L 1210 Leukämiezellen (L1210, 1 h incubation at 37° C, colonies counted after 5-7 days, read-out: IC₅₀ SCA L 1210 1 h); 0.004 µg/mL (≈ 0.00637 µM) in the data set with L 1210 Leukämiezellen (L1210, continuous incubation, colonies counted after 5-7 days, read-out: IC₅₀ SCA L 1210 cont); 0.004 µg/mL (≈ 0.00637 µM) in the data set on L 1210 (L1210, 72 h incubation); 0.016 µg/mL (≈ 0.0255 µM) in the data set with HT 29 (HT-29, 72 h incubation); 0.15 µg/mL (≈ 0.239 µM) in the data set with A 549 (A549, 72 h incubation).
As to `COc1cc(OC)cc(C(C)(C)OC(=O)N[C@H]2C[C@H](O[C@H]3C[C@](O)(C(=O)CO)Cc4c(O)c5c(c(O)c43)C(=O)c3c(OC)cccc3C5=O)O[C@@H](C)[C@H]2OC2CCCCO2)c1` (stereo partly drawn) [Verbindung 1, 7-O-(3-(3 ,5′-Dimethoxy-α,α-dimethyl-benzyloxycarbonylamino)-4-O-tetrahydropyranyl-2,3,6-tridesoxy-alpha-L-lyxohexopyranosyl)-adriamycinon], in the data set on L 1210 Leukämie ("in vivo" L 1210-Testmodell, compared with Doxorubicin or Tetrahydropyranyl-Doxorubicin), the “zytostatische Wirksamkeit” value is given as “erheblich bessere”. Also, the Effektivität toxisch in the data set with L 1210 Leukämie (animals per group with toxic effect, at optimal dose) was 1/6. Further, in the data set on L 1210 Leukämie (at optimal dose, mean survival time treated vs control, L 1210 iv, treatment iv, Q3D (Verbind. 1: 2x, Pirarubicin: 3x)), the “Effektivität T/C %” value is listed as 435%. In the data set with L 1210 Leukämie (setting [1]), the “opt. Dosis” value stood at 20 mg/kg/inj. The “Effektivität LTS” value in the data set with L 1210 Leukämie (long-term survivors at day 60, animals per group, at optimal dose) is on record as 5/6. Also, the IC50 with L 1210 Leukämiezellen (setting [2]) was 5.3 µg/mL (≈ 6.24 µM); in the data set on L 1210 (L1210, 72 h), 0.027 µg/mL (≈ 0.0318 µM); in the data set with HT 29 (HT-29, 72 h), 0.04 µg/mL (≈ 0.0471 µM); in the data set with A 549 (A549, 72 h), 0.023 µg/mL (≈ 0.0271 µM).
`COc1cc(OC)cc(C(C)(C)OC(=O)N[C@H]2C[C@H](O[C@H]3C[C@](O)(C(=O)CO)Cc4c(O)c5c(c(O)c43)C(=O)c3c(OC)cccc3C5=O)O[C@@H](C)[C@H]2O)c1` [Verbindung 2, 7-O-(3-(3 ,5′-Dimethoxy-α,α-dimethyl-benzyloxycarbonylamino)-2,3,6-tridesoxy-alpha-L-lyxohexopyranosyl)-adriamycinon]: the IC50 in the data set with L 1210 Leukämiezellen (setting [2]) came out at 6.4 µg/mL (≈ 8.36 µM); with L 1210 (L1210, 72 h) it was 0.11 µg/mL (≈ 0.144 µM); with HT 29 (HT-29, 72 h), 0.13 µg/mL (≈ 0.17 µM); in the data set on A 549 (A549, 72 h), 0.11 µg/mL (≈ 0.144 µM).
For the molecule `COc1cc(OC)cc(C(C)(C)OC(=O)N[C@H]2C[C@H](O[C@H]3C[C@](O)(C(=O)CO)Cc4c(O)c5c(c(O)c43)C(=O)c3c(OC)cccc3C5=O)O[C@@H](C)[C@@H]2O)c1` [Verbindung 3, 7-O-(3-(3 ,5′-Dimethoxy-α,α-dimethyl-benzyloxycarbonylamino)-2,3,6-tridesoxy-alpha-L-arabinohexopyranosyl)-adriamycinon], the IC50 with L 1210 (L1210, 72 h) was found to be 0.02 µg/mL (≈ 0.0261 µM); in the data set on HT 29 (HT-29, 72 h), 0.11 µg/mL (≈ 0.144 µM); with A 549 (A549, 72 h) it was 0.04 µg/mL (≈ 0.0522 µM).
On to `COc1cc(OC)cc(C(C)(C)OC(=O)N[C@H]2C[C@H](O[C@H]3C[C@](O)(C(C)=O)Cc4c(O)c5c(c(O)c43)C(=O)c3c(OC)cccc3C5=O)O[C@@H](C)[C@H]2O)c1` [Verbindung 4, 7-O-(3-(3 ,5′-Dimethoxy-α,α-dimethyl-benzyloxycarbonylamino)-2,3,6-tridesoxy-alpha-L-lyxohexopyranosyl)-daunomycinon], for which the IC50 was found to be 4.5 µg/mL (≈ 6 µM) in the data set on L 1210 Leukämiezellen (setting [2]); 0.14 µg/mL (≈ 0.187 µM) with L 1210 (L1210, 72 h); 0.13 µg/mL (≈ 0.173 µM) with HT 29 (HT-29, 72 h); 0.13 µg/mL (≈ 0.173 µM) in the data set with A 549 (A549, 72 h).
With `CC[C@@]1(O)C[C@H](O[C@H]2C[C@H](NC(=O)OC(C)(C)c3cc(OC)cc(OC)c3)[C@H](O)[C@H](C)O2)c2c(O)c3c(c(O)c2[C@H]1O)C(=O)c1cccc(O)c1C3=O` [Verbindung 8, 7-O-(3-(3,5-Dimethoxy-alpha,alpha-dimethyl-benzyloxycarbonylamino)-2,3,6-tridesoxy-alpha-L-lyxohexopyranosyl)-β-rhodomycinon], the IC50 with L 1210 Leukämiezellen (setting [2]) was 0.47 µg/mL (≈ 0.637 µM); with L 1210 (L1210, 72 h), 0.004 µg/mL (≈ 0.00542 µM); in the data set with HT 29 (HT-29, 72 h), under 0.004 µg/mL; with A 549 (A549, 72 h) it was under 0.004 µg/mL.
